{"source": "patent US11795481B2", "about": "“Processes for producing a fermentation product” (Novozymes A/S, priority 2017, dated 2023)", "key": {"multi-strain LAB culture": {"test_system": "multi-strain LAB culture", "assay": "SSF of control mash with 1% w/w infected mash, AA13 candidates, HPLC of organic acids and ethanol (Example 3)", "assay_type": "cell-based", "settings": "SSF 32° C. up to 24 hours, 20% DS; for % delta Ethanol / % delta Lactic Acid: vs No Treatment", "method": "A control mash was prepared in-house with an industry relevant blend of AA369 and Protease Pfu using a Lab-O-Mat incubator for 2 hours at 85° C. and 36% DS to simulate typical industry conditions. The mash was then frozen prior to use in SSF. An infected mash was prepared by infecting the control mash with a multi-strain LAB culture grown in MRS. The bacteria in control mash was incubated overnight, and then frozen with 20% glycerol. For this experiment, 1% weight/weight of the infected mash was mixed into the control mash. This mimics an infection event at a large-scale ethanol facility. For SSF, all mash was prepared with 1000 ppm of urea to aid with yeast fermentation. All treatments were dosed with a baseline commercial glucoamylase GSA, while AA13 candidates were dosed at either 10 ug/g-DS or 50 ug/g-DS. SSF was performed at 5 g scale with 10 uL/g rehydrated Ethanol Red yeast at 32° C. for up to 24 hours at 20% DS. At the end of fermentation, samples were deactivated with 50 uL of 40% sulfuric acid and then centrifuged. The supernatant was filtered through a 0.2 μm filter and then measured for soluble carbohydrates and organic acids using an ion-exchange H-column on HPLC."}, "[1]": {"settings": "relative to the parent Penicillium oxalicum glucoamylase; cited from earlier work"}, "[2]": {"settings": "pH 4.5; cited from earlier work"}}, "data": [{"molecule": "Penicillium roseopurpureum: Penicillium roseopurpureum AA13 polypeptide of SEQ ID NO: 139", "values": [{"measurement": "average Ethanol", "setting": "multi-strain LAB culture; AA13 dose 10 ug/g-DS", "result": 78.0, "unit": "g/L"}, {"measurement": "average Lactic Acid", "setting": "multi-strain LAB culture; AA13 dose 10 ug/g-DS", "result": 3.3, "unit": "g/L"}, {"measurement": "% delta Ethanol", "setting": "multi-strain LAB culture; AA13 dose 10 ug/g-DS", "result": 0.5, "unit": "%"}, {"measurement": "% delta Lactic Acid", "setting": "multi-strain LAB culture; AA13 dose 10 ug/g-DS", "result": "−1.3", "unit": "%"}, {"measurement": "average Ethanol", "setting": "multi-strain LAB culture; AA13 dose 50 ug/g-DS", "result": 78.1, "unit": "g/L"}, {"measurement": "average Lactic Acid", "setting": "multi-strain LAB culture; AA13 dose 50 ug/g-DS", "result": 3.3, "unit": "g/L"}, {"measurement": "% delta Ethanol", "setting": "multi-strain LAB culture; AA13 dose 50 ug/g-DS", "result": 0.6, "unit": "%"}, {"measurement": "% delta Lactic Acid", "setting": "multi-strain LAB culture; AA13 dose 50 ug/g-DS", "result": "−1.8", "unit": "%"}]}, {"molecule": "Penicillium samsonianum: Penicillium samsonianum AA13 polypeptide of SEQ ID NO: 140", "values": [{"measurement": "average Ethanol", "setting": "multi-strain LAB culture; AA13 dose 10 ug/g-DS", "result": 77.1, "unit": "g/L"}, {"measurement": "average Lactic Acid", "setting": "multi-strain LAB culture; AA13 dose 10 ug/g-DS", "result": 3.4, "unit": "g/L"}, {"measurement": "% delta Ethanol", "setting": "multi-strain LAB culture; AA13 dose 10 ug/g-DS", "result": "−0.6", "unit": "%"}, {"measurement": "% delta Lactic Acid", "setting": "multi-strain LAB culture; AA13 dose 10 ug/g-DS", "result": 2.2, "unit": "%"}, {"measurement": "average Ethanol", "setting": "multi-strain LAB culture; AA13 dose 50 ug/g-DS", "result": 77.4, "unit": "g/L"}, {"measurement": "average Lactic Acid", "setting": "multi-strain LAB culture; AA13 dose 50 ug/g-DS", "result": 3.4, "unit": "g/L"}, {"measurement": "% delta Ethanol", "setting": "multi-strain LAB culture; AA13 dose 50 ug/g-DS", "result": "−0.4", "unit": "%"}, {"measurement": "% delta Lactic Acid", "setting": "multi-strain LAB culture; AA13 dose 50 ug/g-DS", "result": 2.0, "unit": "%"}]}, {"molecule": "Penicillium sclerotiorum: Penicillium sclerotiorum AA13 polypeptide of SEQ ID NO: 141", "values": [{"measurement": "average Ethanol", "setting": "multi-strain LAB culture; AA13 dose 10 ug/g-DS", "result": 76.4, "unit": "g/L"}, {"measurement": "average Lactic Acid", "setting": "multi-strain LAB culture; AA13 dose 10 ug/g-DS", "result": 3.5, "unit": "g/L"}, {"measurement": "% delta Ethanol", "setting": "multi-strain LAB culture; AA13 dose 10 ug/g-DS", "result": "−1.6", "unit": "%"}, {"measurement": "% delta Lactic Acid", "setting": "multi-strain LAB culture; AA13 dose 10 ug/g-DS", "result": 6.9, "unit": "%"}, {"measurement": "average Ethanol", "setting": "multi-strain LAB culture; AA13 dose 50 ug/g-DS", "result": 78.1, "unit": "g/L"}, {"measurement": "average Lactic Acid", "setting": "multi-strain LAB culture; AA13 dose 50 ug/g-DS", "result": 3.3, "unit": "g/L"}, {"measurement": "% delta Ethanol", "setting": "multi-strain LAB culture; AA13 dose 50 ug/g-DS", "result": 0.6, "unit": "%"}, {"measurement": "% delta Lactic Acid", "setting": "multi-strain LAB culture; AA13 dose 50 ug/g-DS", "result": "−0.9", "unit": "%"}]}, {"molecule": "Penicillium steckii: Penicillium steckii AA13 polypeptide of SEQ ID NO: 145", "values": [{"measurement": "average Ethanol", "setting": "multi-strain LAB culture; AA13 dose 10 ug/g-DS", "result": 76.6, "unit": "g/L"}, {"measurement": "average Lactic Acid", "setting": "multi-strain LAB culture; AA13 dose 10 ug/g-DS", "result": 3.5, "unit": "g/L"}, {"measurement": "% delta Ethanol", "setting": "multi-strain LAB culture; AA13 dose 10 ug/g-DS", "result": "−1.4", "unit": "%"}, {"measurement": "% delta Lactic Acid", "setting": "multi-strain LAB culture; AA13 dose 10 ug/g-DS", "result": 4.5, "unit": "%"}, {"measurement": "average Ethanol", "setting": "multi-strain LAB culture; AA13 dose 50 ug/g-DS", "result": 77.3, "unit": "g/L"}, {"measurement": "average Lactic Acid", "setting": "multi-strain LAB culture; AA13 dose 50 ug/g-DS", "result": 3.3, "unit": "g/L"}, {"measurement": "% delta Ethanol", "setting": "multi-strain LAB culture; AA13 dose 50 ug/g-DS", "result": "−0.4", "unit": "%"}, {"measurement": "% delta Lactic Acid", "setting": "multi-strain LAB culture; AA13 dose 50 ug/g-DS", "result": "−1.0", "unit": "%"}]}, {"molecule": "Penicillium viticola: Penicillium viticola AA13 polypeptide of SEQ ID NO: 146", "values": [{"measurement": "average Ethanol", "setting": "multi-strain LAB culture; AA13 dose 10 ug/g-DS", "result": 76.6, "unit": "g/L"}, {"measurement": "average Lactic Acid", "setting": "multi-strain LAB culture; AA13 dose 10 ug/g-DS", "result": 3.4, "unit": "g/L"}, {"measurement": "% delta Ethanol", "setting": "multi-strain LAB culture; AA13 dose 10 ug/g-DS", "result": "−1.3", "unit": "%"}, {"measurement": "% delta Lactic Acid", "setting": "multi-strain LAB culture; AA13 dose 10 ug/g-DS", "result": 2.2, "unit": "%"}, {"measurement": "average Ethanol", "setting": "multi-strain LAB culture; AA13 dose 50 ug/g-DS", "result": 77.8, "unit": "g/L"}, {"measurement": "average Lactic Acid", "setting": "multi-strain LAB culture; AA13 dose 50 ug/g-DS", "result": 3.4, "unit": "g/L"}, {"measurement": "% delta Ethanol", "setting": "multi-strain LAB culture; AA13 dose 50 ug/g-DS", "result": 0.2, "unit": "%"}, {"measurement": "% delta Lactic Acid", "setting": "multi-strain LAB culture; AA13 dose 50 ug/g-DS", "result": 2.8, "unit": "%"}]}, {"molecule": "Penicillium vulpinum: Penicillium vulpinum AA13 polypeptide of SEQ ID NO: 147", "values": [{"measurement": "average Ethanol", "setting": "multi-strain LAB culture; AA13 dose 10 ug/g-DS", "result": 79.0, "unit": "g/L"}, {"measurement": "average Lactic Acid", "setting": "multi-strain LAB culture; AA13 dose 10 ug/g-DS", "result": 3.2, "unit": "g/L"}, {"measurement": "% delta Ethanol", "setting": "multi-strain LAB culture; AA13 dose 10 ug/g-DS", "result": 1.7, "unit": "%"}, {"measurement": "% delta Lactic Acid", "setting": "multi-strain LAB culture; AA13 dose 10 ug/g-DS", "result": "−2.9", "unit": "%"}, {"measurement": "average Ethanol", "setting": "multi-strain LAB culture; AA13 dose 50 ug/g-DS", "result": 78.3, "unit": "g/L"}, {"measurement": "average Lactic Acid", "setting": "multi-strain LAB culture; AA13 dose 50 ug/g-DS", "result": 3.5, "unit": "g/L"}, {"measurement": "% delta Ethanol", "setting": "multi-strain LAB culture; AA13 dose 50 ug/g-DS", "result": 0.9, "unit": "%"}, {"measurement": "% delta Lactic Acid", "setting": "multi-strain LAB culture; AA13 dose 50 ug/g-DS", "result": 4.6, "unit": "%"}]}, {"molecule": "PE001: variant of the Penicillium oxalicum glucoamylase of SEQ ID NO: 106 having a K79V substitution (protein, listed as Penicillium oxalicum) RPDPKGGNLTPFIHKEGERSLQGILDNLGGRGKKTPGTAAGLFIASPNTENPNYYYTWTRDSALTAKCLIDLFEDSRAVFPIDRKYLETGIRDYKSSQAILQSVSNPSGTLKDGSGLGEPKFEIDLNPFSGAWGRPQRDGPALRATAMITYANYLISHGQKSDVSQVMWPIIANDLAYVGQYWNNTGFDLWEEVDGSSFFTIAVQHRALVEGSQLAKKLGKSCDACDSQPPQILCFLQSFWNGKYITSNINTQASRSGIDLDSVLGSIHTFDPEAACDDATFQPCSARALANHKVYVDSFRSIYKINAGLAEGSAANVGRYPEDVYQGGNPWYLATLGASELLYDALYQWDRLGKLEVSETSLSFFKDFDATVKIGSYSRNSKTYKKLTQSIKSYADGFIQLVQQYTPSNGSLAEQYDRNTAAPLSANDLTWSFASFLTATQRRDAVVPPSWGAKSANKVPTTCSASPVVGTYKAPTATFSSKTKCVPAKDIVPITFYLIENTYYGENVFMSGNITALGNWDAKKGFPLTANLYTQDQNLWFASVEFIPAGTPFEYKYYKVEPNGDITWEKGPNRVFVAPTGCPVQPHSNDVWQF", "values": [{"measurement": "sensitivity to protease degradation", "setting": "[1]", "result": "reduced sensitivity to protease degradation relative to the parent"}]}, {"molecule": "Pfu S: commercial product Pyrococcus furiosus protease (Pfu S), SEQ ID NO: 111 (protein, listed as Pyrococcus furiosus) AELEGLDESAAQVMATYVWNLGYDGSGITIGIIDTGIDASHPDLQGKVIGWVDFVNGRSYPYDDHGHGTHVASIAAGTGAASNGKYKGMAPGAKLAGIKVLGADGSGSISTIIKGVEWAVDNKDKYGIKVINLSLGSSQSSDGTDALSQAVNAAWDAGLVVVVAAGNSGPNKYTIGSPAAASKVITVGAVDKYDVITSFSSRGPTADGRLKPEVVAPGNWIIAARASGTSMGQPINDYYTAAPGTSMATPHVAGIAALLLQAHPSWTPDKVKTALIETADIVKPDEIADIAYGAGRVNAYKAINYDNYAKLVFTGYVANKGSQTHQFVISGASFVTATLYWDNANSDLDLYLYDPNGNQVDYSYTAYYGFEKVGYYNPTDGTWTIKVVSYSGSANYQVDVVSDGSLSQPGSS", "values": [{"measurement": "thermostability (Relative Activity 80° C./70° C.)", "setting": "[2]", "result": 110, "unit": "%"}, {"measurement": "thermostability (Relative Activity 90° C./70° C.)", "setting": "[2]", "result": 103, "unit": "%"}]}]}
